From US9326973B2, “Hepatitis C virus inhibitors” (priority 2012, dated 2016)

Tested on: HCV replicon, genotype-1a variant with glutamine 30 changed to glutamate in the NS5A protein
Test: microbe, parasite or virus in culture
Format: cell-based, HCV genotype 1a
Conditions: HCV replicon genotype 1a Q30E (Q→E) variant; test compound titrated with an NS5A-targeting compound (BMS-790052 fixed at 200 nM); ranking of synergist activity
Outline: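 Synergy was assessed by combining several fixed amounts of an NS5A-targeting compound with a titration of the second compound of interest.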

SMILES | Fold-Synergistic 1a (Q30E)
COc1ccc(C2(C(=O)N3CCC[C@H]3c3ncc(-c4ccc(-c5ccc(-c6cnc([C@@H]7CCCN7C(=O)C7(c8ccc(OC)cc8)CCCC7)[nH]6)cc5)cc4)[nH]3)CCCC2)cc1 [Compound S-158] | <10 fold
CC(C)(C)[C@H](NC(=O)[C@H]1C[C@@](C)(O)C1)c1nc(-c2ccc(-c3ccc(-c4c[nH]c([C@@H](NC(=O)[C@H]5C[C@@](C)(O)C5)C(C)(C)C)n4)cc3)cc2)c[nH]1 [Compound W-169] | >100 fold
Cn1cccc1C(=O)N1CCC[C@H]1c1ncc(-c2ccc(-c3ccc(-c4cnc([C@@H]5CCCN5C(=O)c5cccn5C)[nH]4)cc3)cc2)[nH]1 [Compound S-175] | <10 fold
CC(C)(C)[C@H](NC(=O)[C@@]1(C)CC(F)(F)CO1)c1nc(-c2ccc(-c3ccc(-c4c[nH]c([C@@H](NC(=O)[C@@]5(C)CC(F)(F)CO5)C(C)(C)C)n4)cc3)cc2)c[nH]1 [Compound Y-77] | >100 fold
COC1(C(F)(F)C(=O)N[C@H](c2nc(-c3ccc(-c4ccc(-c5c[nH]c([C@@H](NC(=O)C(F)(F)C6(OC)CCCCC6)C(C)(C)C)n5)cc4)cc3)c[nH]2)C(C)(C)C)CCCCC1 [Compound P-167] | >100 fold
COC(=O)N[C@@H](C(=O)N[C@@H](CC(C)C)c1nc(-c2ccc(-c3ccc(-c4c[nH]c([C@H](CC(C)C)NC(=O)[C@H](NC(=O)OC)C(C)C)n4)cc3)cc2)c[nH]1)C(C)C [Compound N-29] | >10 fold
CC(C)(C)[C@H](NC(=O)C1(CF)CCCCO1)c1nc(-c2ccc(-c3ccc(-c4c[nH]c([C@@H](NC(=O)C5(CF)CCCCO5)C(C)(C)C)n4)cc3)cc2)c[nH]1 (stereo partly shown) [Compound P-178] | >100 fold
CC(C)(C)[C@H](NC(=O)[C@H]1CCCO1)c1nc(-c2ccc(-c3ccc(-c4c[nH]c([C@@H](NC(=O)[C@H]5CCCO5)C(C)(C)C)n4)cc3)cc2)c[nH]1 [Compound L-64] | >100 fold
CC(C)(C(=O)N[C@H](c1nc(-c2ccc(-c3ccc(-c4c[nH]c([C@@H](NC(=O)C(C)(C)C(=O)N5CCC(F)CC5)C(C)(C)C)n4)cc3)cc2)c[nH]1)C(C)(C)C)C(=O)N1CCC(F)CC1 [Compound W-142] | >100 fold
O=C(N1CCC[C@H]1c1ncc(-c2ccc(-c3ccc(-c4cnc([C@@H]5CCCN5C(=O)C5(c6ccccc6)CC5)[nH]4)cc3)cc2)[nH]1)C1(c2ccccc2)CC1 [Compound S-159] | <10 fold
CC(C)[C@H](NC(=O)[C@@]1(C)CCCCO1)c1nc(-c2ccc(-c3ccc(-c4c[nH]c([C@@H](NC(=O)[C@@]5(C)CCCCO5)C(C)C)n4)cc3)cc2)c[nH]1 [Compound P-184] | >100 fold
CCN(CC1CC1)C(=O)C(C)(C)C(=O)N[C@H](c1nc(-c2ccc(-c3ccc(-c4c[nH]c([C@@H](NC(=O)C(C)(C)C(=O)N(CC)CC5CC5)C(C)(C)C)n4)cc3)cc2)c[nH]1)C(C)(C)C [Compound W-156] | >100 fold
CC(C)(C)[C@H](NC(=O)[C@@H]1COCCN1CC(F)(F)F)c1nc(-c2ccc(-c3ccc(-c4c[nH]c([C@@H](NC(=O)[C@@H]5COCCN5CC(F)(F)F)C(C)(C)C)n4)cc3)cc2)c[nH]1 [Compound L-68] | >100 fold
CC(C)C(N[S+]([O-])C(C)(C)C)c1ncc(-c2ccc(-c3ccc(-c4cnc([C@@H](N[S+]([O-])C(C)(C)C)C(C)C)[nH]4)cc3)cc2)[nH]1 (single isomer, unassigned) [Compound Y-61] | <10 fold
COC(=O)N[C@H](C(=O)NC1(c2nc(-c3ccc(-c4ccc(-c5c[nH]c(C6(NC(=O)[C@@H](NC(=O)OC)C(C)C)Cc7ccccc7C6)n5)cc4)cc3)c[nH]2)Cc2ccccc2C1)C(C)C [Compound N-18] | <10 fold
CC(C)CC(=O)NC1(c2nc(-c3ccc(-c4ccc(-c5c[nH]c(C6(NC(=O)CC(C)C)CC6)n5)cc4)cc3)c[nH]2)CC1 [Compound N-21] | <10 fold
COC(C)(C(=O)N[C@H](c1nc(-c2ccc(-c3ccc(-c4c[nH]c([C@@H](NC(=O)C(C)(OC)C5(O)CCC(F)(F)CC5)C(C)(C)C)n4)cc3)cc2)c[nH]1)C(C)(C)C)C1(O)CCC(F)(F)CC1 (stereo partly shown) [Compound P-156] | >100 fold
CC(C)(C)OC(=O)N1CC(F)(F)C[C@H]1C(=O)N[C@H](c1nc(-c2ccc(-c3ccc(-c4c[nH]c([C@@H](NC(=O)[C@@H]5CC(F)(F)CN5C(=O)OC(C)(C)C)C(C)(C)C)n4)cc3)cc2)c[nH]1)C(C)(C)C [Compound W-88] | >100 fold
CC(C)[C@H](NC(=O)C(C)(C)C)c1nc(-c2ccc(-c3ccc(-c4c[nH]c([C@@H](NC(=O)C(C)(C)C)C(C)C)n4)c(F)c3)cc2)c[nH]1 [Compound N-89] | >100 fold
COC(=O)N1C[C@H](F)C[C@H]1C(=O)N[C@H](c1nc(-c2ccc(-c3ccc(-c4c[nH]c([C@@H](NC(=O)[C@@H]5C[C@@H](F)CN5C(=O)OC)C(C)(C)C)n4)cc3)cc2)c[nH]1)C(C)(C)C [Compound W-109] | >100 fold

SMILES | Fold-Synergistic 1a (Q30E)
O=C(c1cnc2n(c1=O)CCS2)N1CCC[C@H]1c1ncc(-c2ccc(-c3ccc(-c4cnc([C@@H]5CCCN5C(=O)c5cnc6n(c5=O)CCS6)[nH]4)cc3)cc2)[nH]1 [Compound S-135] | <10 fold
C[C@H]1CC[C@@H](C(=O)N[C@H](c2nc(-c3ccc(-c4ccc(-c5c[nH]c([C@@H](NC(=O)[C@@H]6CC[C@H](C)N6C(=O)OC(C)(C)C)C6(C)CC6)n5)cc4)cc3)c[nH]2)C2(C)CC2)N1C(=O)OC(C)(C)C [Compound W-72] | >100 fold
CC(C)(C)[C@H](NC(=O)[C@H]1CC[C@@](C)(O)CC1)c1nc(-c2ccc(-c3ccc(-c4c[nH]c([C@@H](NC(=O)[C@H]5CC[C@@](C)(O)CC5)C(C)(C)C)n4)cc3)cc2)c[nH]1 [Compound W-175] | >100 fold
CC(C)[C@H](NC(=O)c1cc(Cl)ccc1F)c1nc(-c2ccc3c(c2)CCc2cc(-c4c[nH]c([C@@H](NC(=O)c5cc(Cl)ccc5F)C(C)C)n4)ccc2-3)c[nH]1 [Compound N-76] | >100 fold
CC(C)(C)[C@H](NC(=O)C(=O)c1cccs1)c1nc(-c2ccc(-c3ccc(-c4c[nH]c([C@@H](NC(=O)C(=O)c5cccs5)C(C)(C)C)n4)cc3)cc2)c[nH]1 [Compound W-19] | >100 fold
CC(CO)(CO)C(=O)N[C@H](c1nc(-c2ccc(-c3ccc(-c4c[nH]c([C@@H](NC(=O)C(C)(CO)CO)C(C)(C)C)n4)cc3)cc2)c[nH]1)C(C)(C)C [Compound W-125] | >100 fold
CC(C)(C)[C@H](NC(=O)[C@H]1CCC(=O)O1)c1nc(-c2ccc(-c3ccc(-c4c[nH]c([C@@H](NC(=O)[C@H]5CCC(=O)O5)C(C)(C)C)n4)cc3)cc2)c[nH]1 [Compound L-79] | <10 fold
C[C@@H](OC(=O)N(C)C1(C(=O)N[C@H](c2nc(-c3ccc(-c4ccc(-c5c[nH]c([C@@H](NC(=O)C6(N(C)C(=O)O[C@H](C)C(F)(F)F)CC6)C(C)(C)C)n5)cc4)cc3)c[nH]2)C(C)(C)C)CC1)C(F)(F)F [Compound L-44] | >100 fold
COc1cc2ccccc2c(C(=O)N2CCCC2c2ncc(-c3ccc(-c4ccc(-c5cnc(C(NC(=O)C(C)(C)C)C(C)C)[nH]5)cc4)cc3)[nH]2)n1 (stereo not shown) [Compound Y-13] | >100 fold
COC(=O)N[C@H](C(=O)N[C@H](c1nc(-c2ccc3cc(-c4ccc(-c5cnc([C@@H](NC(=O)[C@@H](NC(=O)OC)C(C)C)C(C)C)[nH]5)cc4)ccc3c2)c[nH]1)C(C)C)C(C)C [Compound P-1] | <10 fold
CC(C)(C)OC(=O)NC1(C(=O)N[C@H](c2nc(-c3ccc(-c4ccc(-c5c[nH]c([C@@H](NC(=O)C6(NC(=O)OC(C)(C)C)CCC(F)(F)CC6)C(C)(C)C)n5)cc4)cc3)c[nH]2)C(C)(C)C)CCC(F)(F)CC1 [Compound L-49] | >100 fold
COC(C)(C)[C@H](NC(=O)C(C)(C)C)c1nc(-c2ccc(-c3ccc(-c4c[nH]c([C@@H](NC(=O)C(C)(C)C)C(C)(C)OC)n4)cc3)cc2)c[nH]1 [Compound P-9] | >100 fold
CC(C)CCC(=O)N1CCC[C@H]1c1ncc(-c2ccc(-c3ccc(-c4cnc([C@@H]5CCCN5C(=O)CCC(C)C)[nH]4)cc3)cc2)[nH]1 [Compound S-174] | <10 fold
CC(C)[C@H](NC(=O)C(=O)N(CC(F)(F)F)C(C)C)c1nc(-c2ccc(-c3ccc(-c4c[nH]c([C@@H](NC(=O)C(=O)N(CC(F)(F)F)C(C)C)C(C)C)n4)cc3)cc2)c[nH]1 [Compound W-65] | >100 fold
CC(C)(C)[C@H](NC(=O)CC1CCOC2(CC2)C1)c1nc(-c2ccc(-c3ccc(-c4c[nH]c([C@@H](NC(=O)CC5CCOC6(CC6)C5)C(C)(C)C)n4)cc3)cc2)c[nH]1 (stereo partly drawn) [Compound L-75] | >100 fold
O=C(CC1CCCC1)N1CCC[C@H]1c1ncc(-c2ccc(-c3ccc(-c4cnc([C@@H]5CCCN5C(=O)CC5CCCC5)[nH]4)cc3)cc2)[nH]1 [Compound S-165] | >10 fold
CC(C)(C)[C@H](NC(=O)c1ccccc1F)c1nc(-c2ccc(-c3ccc(-c4c[nH]c([C@@H](NC(=O)c5ccccc5F)C(C)(C)C)n4)c(F)c3)cc2)c[nH]1 [Compound N-95] | >100 fold
O=C(N[C@H](c1nc(-c2ccc(-c3ccc(-c4c[nH]c([C@@H](NC(=O)C(=O)N5CCC(F)(F)CC5)C5CC5)n4)cc3)cc2)c[nH]1)C1CC1)C(=O)N1CCC(F)(F)CC1 [Compound L-37] | >100 fold
CC(C)(C)OC(=O)NC1CCC(C(=O)N[C@H](c2nc(-c3ccc(-c4ccc(-c5c[nH]c([C@@H](NC(=O)C6CCC(NC(=O)OC(C)(C)C)CC6)C(C)(C)C)n5)cc4)cc3)c[nH]2)C(C)(C)C)CC1 (stereo partly shown) [Compound S-270] | >100 fold
CC(=O)OC1C2CCCC1(C(=O)N[C@H](c1nc(-c3ccc(-c4ccc(-c5c[nH]c([C@@H](NC(=O)C67CCCC(CCC6)C7OC(C)=O)C(C)(C)C)n5)cc4)cc3)c[nH]1)C(C)(C)C)CCC2 (stereo partly shown) [Compound S-274] | >100 fold
